This is an account of results in patent US7705030B2, “Amino-5-(5-membered)hetero-arylimidazolone compounds and the use thereof for β-secretase modulation” (Wyeth LLC, priority 2005, dated 2010).

In one data set the target is human BACE1 (Homo sapiens, UniProt P56817). Put plainly: Fluorescent kinetic assay: Evaluation of BACE-1 Binding Affinity of Test Compounds. Type of data set: biochemical. Conditions: 10 nM enzyme, 25 μM substrate WABC-6, 50 mM Na-Acetate pH 4.5, room temperature. The method, boiled down: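 Run with 10 nM human BACE1 and 25 μM WABC-6 FRET peptide in 50 mM Na-acetate pH 4.5, 0.05% CHAPS, 25% PBS at room temperature. Fluorescence (ex 320/em 420 nm) was read every 40 sec for 30 min, and initial cleavage rates were taken from linear slopes across ≥10 inhibitor concentrations.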
Sequence of human BACE1 (P56817 46-501): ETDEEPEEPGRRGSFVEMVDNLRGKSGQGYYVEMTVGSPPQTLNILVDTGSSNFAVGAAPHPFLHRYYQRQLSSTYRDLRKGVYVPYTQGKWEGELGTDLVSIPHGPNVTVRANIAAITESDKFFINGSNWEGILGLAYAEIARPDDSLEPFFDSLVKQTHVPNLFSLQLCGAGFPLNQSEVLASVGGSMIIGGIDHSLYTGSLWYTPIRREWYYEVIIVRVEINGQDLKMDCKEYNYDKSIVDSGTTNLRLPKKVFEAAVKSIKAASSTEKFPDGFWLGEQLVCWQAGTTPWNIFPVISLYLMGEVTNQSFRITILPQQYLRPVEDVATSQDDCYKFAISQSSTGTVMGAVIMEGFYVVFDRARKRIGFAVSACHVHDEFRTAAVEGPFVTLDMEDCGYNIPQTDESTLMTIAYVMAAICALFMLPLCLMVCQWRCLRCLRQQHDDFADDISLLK

In turn, `CN1C(=O)C(c2cccc(-c3cccnc3F)c2)(c2cnn(CC(F)(F)F)c2)N=C1N` (stereo not drawn) [Example 69, 2-amino-5-[3-(2-fluoropyridin-3-yl)phenyl]-3-methyl-5-[1-(2,2,2-trifluoroethyl)-1H-pyrazol-4-yl]-3,5-dihydro-4H-imidazol-4-one] had a melting point of 104 to 106 °C. At human BACE1, this molecule returned an IC50 of 10 to 100 nM.
`CCn1cc(C2(c3ccc(F)c(-c4cccnc4F)c3)N=C(N)N(C)C2=O)cn1` (stereo not drawn) [Example 10, 2-Amino-5-(1-ethyl-1H-pyrazol-4-yl)-5-[4-fluoro-3-(2-fluoropyridin-3-yl)phenyl]-3-methyl-3,5-dihydro-4H-imidazol-4-one] had a melting point of 84 to 85 °C. The molecule also came in with an IC50 on human BACE1 of 10 to 100 nM.
The matching figures for `CCn1ccc(C2(c3cccc(-c4cncnc4)c3)N=C(N)N(C)C2=O)c1` (stereo not drawn) [Example 52, 2-amino-5-(1-ethyl-1H-pyrrol-3-yl)-3-methyl-5-(3-pyrimidin-5-ylphenyl)-3,5-dihydro-4H-imidazol-4-one]: 100 to 102 °C and 110 to 1000 nM.
The matching figures for `CN1C(=O)C(c2ccc(OC(F)F)cc2)(c2cnn(CC(F)(F)F)c2)N=C1N` (stereo not drawn) [Example 74]: 70 to 72 °C and above 1000 nM.
Take `CCC(=O)c1cc(C2(c3ccc(F)c(-c4cccnc4F)c3)N=C(N)N(C)C2=O)cn1CC(F)(F)F` (stereo not drawn) [Example 207]: the melting point lay within 122 to 124 °C. The same molecule showed an IC50 at human BACE1 of 10 to 100 nM.
The matching figures for `CCCn1cc(C2(c3cccc(-c4cncnc4)c3)N=C(N)N(C)C2=O)cc1C#N` (stereo not drawn) [Example 229]: 165 to 166 °C and 10 to 100 nM.
The molecule `CCC(=O)c1cc(C2(c3cccc(-c4cccnc4F)c3)N=C(N)N(C)C2=O)cn1Cc1ccccc1` (stereo not drawn) [Example 181] yielded a melting point of 93 to 96 °C. The IC50 at human BACE1 lay in the range of 10 to 100 nM.
The matching figures for `CCn1cc(C2(c3cccc(-c4cccnc4F)c3)N=C(N)N(C)C2=O)cc1C(=O)NCc1ccc(F)cc1` (stereo not drawn) [Example 166]: 110 to 112 °C and 110 to 1000 nM.
`CN1C(=O)C(c2ccsc2)(c2cccc(-c3cnccn3)c2)N=C1N` (stereo not drawn) [Example 33]: the melting point worked out at 223 °C. At human BACE1, the IC50 lay within 10 to 100 nM.
`CN1C(=O)C(c2cccc(-c3cncnc3)c2)(c2cc(C#N)n(CCF)c2)N=C1N` (stereo not drawn) [Example 228] registered a melting point of 193 to 194 °C. Besides, the IC50 on human BACE1 was 110 to 1000 nM.
The molecule `CCC(=O)c1cc(C2(c3cccc(-c4cncnc4)c3)N=C(N)N(C)C2=O)cn1CC(F)(F)F` (stereo not drawn) [Example 201] gave a melting point of 135 to 137 °C. In addition, the IC50 on human BACE1 fell in the range of 10 to 100 nM.
As to `CN1C(=O)C(c2ccc(F)c(-c3cccnc3F)c2)(c2cnn(CC(F)(F)F)c2)N=C1N` (stereo not drawn) [Example 7, 2-Amino-5-[4-fluoro-3-(2-fluoropyridin-3-yl)phenyl]-3-methyl-5-[1-(2,2,2-trifluoroethyl)-1H-pyrazol-4-yl]-3,5-dihydro-4H-imidazol-4-one], the melting point is above 225 °C. For the same molecule, the IC50 at human BACE1 lay in the range of 110 to 1000 nM.
The matching figures for `CN1C(=O)C(c2cccc(OCC3CC3)c2)(c2cnn(CC(F)(F)F)c2)N=C1N` (stereo not drawn) [Example 71, 2-amino-5-[3-(cyclopropylmethoxy)phenyl]-3-methyl-5-[1-(2,2,2-trifluoroethyl)-1H-pyrazol-4-yl]-3,5-dihydro-4H-imidazol-4-one]: 78 to 80 °C and 110 to 1000 nM.
For the molecule `CCn1cc(C2(c3cccc(-c4cccnc4F)c3)N=C(N)N(C)C2=O)cc1C(=O)N1CCOCC1` (stereo not drawn) [Example 164], the melting point was 108 to 109 °C. At human BACE1, this molecule gave an IC50 of 10 to 100 nM.
The matching figures for `CN1C(=O)C(c2cc[nH]c2)(c2cccc(O)c2)N=C1N` (stereo not drawn) [Example 59, 2-amino-5-(3-hydroxyphenyl)-5-(1H-pyrrol-3-yl)-3-methyl-3,5-dihydro-4H-imidazol-4-one]: 142 to 145 °C and above 1000 nM.
The matching figures for `CCCCn1cc(C2(c3cccc(-c4cncnc4)c3)N=C(N)N(C)C2=O)cn1` (stereo not drawn) [Example 6, 2-Amino-5-(1-butyl-1H-pyrazol-4-yl)-3-methyl-5-(3-pyrimidin-5-ylphenyl)-3,5-dihydro-4H-imidazol-4-one]: 94 to 98 °C and 10 to 100 nM.
Consider `CN1C(=O)C(c2ccsc2)(c2cccc(-c3cccnc3F)c2)N=C1N` (stereo not drawn) [Example 34], for which the melting point worked out at 213 °C. On human BACE1, the IC50 is 10 to 100 nM.
`CN1C(=O)C(c2cccc(-c3cccnc3F)c2)(c2cnn(CCF)c2)N=C1N` (stereo not drawn) [Example 68, 2-amino-5-[1-(2-fluoroethyl)-1H-pyrazol-4-yl]-5-[3-(2-fluoropyridin-3-yl)phenyl]-3-methyl-3,5-dihydro-4H-imidazol-4-one] came in with a melting point of 195 to 197 °C. Also, the IC50 on human BACE1 is 10 to 100 nM.
As to `CCC(=O)c1cc(C2(c3cccc(-c4cccnc4F)c3)N=C(N)N(C)C2=O)cn1CC(F)(F)F` (stereo not drawn) [Example 200, 2-Amino-5-[5-propionyl-1-(2,2,2-trifluoroethyl)-1H-pyrrol-3-yl]-5-[3-(2-fluoropyridin-3-yl)phenyl]-3-methyl-3,5-dihydro-4H-imidazol-4-one], the melting point was in the range of 108 to 110 °C. In addition, the IC50 on human BACE1 is 10 to 100 nM.
The matching figures for `COC(=O)c1cc(C2(c3cccc(-c4cccc(C#N)c4)c3)N=C(N)N(C)C2=O)cn1CCF` (stereo not drawn) [Example 194]: 98 to 101 °C and 10 to 100 nM.
In the same order, the values of `CCC1(c2cc(C3(c4cccc(-c5cncnc5)c4)N=C(N)N(C)C3=O)cs2)OCCO1` (stereo not drawn) [Example 114] are 105 to 112 °C and 10 to 100 nM.
The matching figures for `CCC(=O)c1cc(C2(c3cccc(-c4cncnc4)c3)N=C(N)N(C)C2=O)cs1` (stereo not drawn) [Example 116, 2-Amino-3-methyl-5-(5-propionyl-thiophen-3-yl)-5-(3-pyrimidin-5-yl-phenyl)-3,5-dihydro-imidazol-4-one]: 167 to 172 °C and 10 to 100 nM.
Turning to `CCC(O)c1cc(C2(c3cccc(-c4cccnc4F)c3)N=C(N)N(C)C2=O)cn1CC` (stereo not drawn) [Example 240, 2-Amino-5-[1-ethyl-5-(1-hydroxypropyl)-1H-pyrrol-3-yl]-5-[3-(2-fluoropyridin-3-yl)phenyl]-3-methyl-3,5-dihydro-4H-imidazol-4-one], the melting point was 115 to 121 °C. The same molecule gave an IC50 at human BACE1 of 110 to 1000 nM.
Take `CCC(=O)Nc1cccc(C2(c3cc(C(=O)CC)n(CC)c3)N=C(N)N(C)C2=O)c1` (stereo not drawn) [Example 130, N-{3-[2-amino-4-(1-ethyl-5-propionyl-1H-pyrrol-3-yl)-1-methyl-5-oxo-4,5-dihydro-1H-imidazol-4-yl]-phenyl}-propionamide]: the melting point was in the range of 120 to 141 °C. The molecule also showed an IC50 at human BACE1 of 110 to 1000 nM.
With `COC(=O)c1cc(C2(c3ccc(F)c(-c4cccnc4F)c3)N=C(N)N(C)C2=O)cn1CCF` (stereo not drawn) [Example 122], the melting point fell in the range of 127 to 128 °C. At human BACE1, this molecule displayed an IC50 of 10 to 100 nM.
The molecule `CCC(=O)c1cc(C2(c3cccc(-c4cccc(OC)c4)c3)N=C(N)N(C)C2=O)cn1CC(F)(F)F` (stereo not drawn) [Example 202] had a melting point of 103 to 105 °C. In addition, the IC50 at human BACE1 lay in the range of 10 to 100 nM.
For the molecule `CCCCCOc1cccc(C2(c3cc(C(=O)CC)n(CC)c3)N=C(N)N(C)C2=O)c1` (stereo not drawn) [Example 133], the melting point is 70 °C. The molecule further registered a 50% inhibitory concentration (IC50) at human BACE1 of 10 to 100 nM.

Broadly, the melting point is the temperature of the solid-liquid transition. The IC50 is the concentration needed to halve the response being measured. Read a low IC50 as inhibition by little substance.
